The numbers were not newly measured in patent US20090023784A1, “USE OF DEFERIPRONE AND METHODS TO TREAT AND/OR PREVENT FRIEDREICH ATAXIA RESULTING FROM INTRACELLULAR MISHANDLING OF IRON” (priority 2006, published 2009), which cites them from elsewhere.

The subject of the data set is intracellular iron pools of macrophages, hepatocytes, and cardiomyocyte cell lines. To be noted: living cells, fluorescence probes; cited from earlier work.

On to `CC(=O)N(O)CCCCCNC(=O)CCC(=O)N(O)CCCCCNC(=O)CCC(=O)N(O)CCCCCN` [desferrioxamine], for which the “access to intracellular iron pools / chelation” value is “slow”.
